Publication PMC10643470, “Knockout or inhibition of USP30 protects dopaminergic neurons in a Parkinson’s disease mouse model” (Nature Communications, 2023)
“And” between values parts separate entries of the source, which are not always exact repeats. Equal entries are not always repeated.

How the values were obtained:
[1] = tested on: AAV-A53T-SNCA PD mouse model; assay: Iba1/GFAP immunostaining in SNpc, AAV-A53T-SNCA mouse model (compound study); assay type: in vivo; design: key to Figure S7a immunostaining, Left / Figure S7a immunostaining, Right: % stained area = stained area / region area × 100
Excerpt: (§1) For the compound study, the fixed, cryoprotected and frozen midbrain samples were sectioned as coronal sections at 100 µm intervals through SNpc and ventral tegmental area (VTA) and mounted on glass slides. Sectioning was started at −2.6 mm from bregma and continued to −3.7 mm from bregma in the AP axis (coordinates based on Franklin & Paxinos: The Mouse Brain in Stereotaxic Coordinates). For the immunostaining, the sections were stained with anti-TH following permeabilization. The stained sections were scanned with the Olympus VS120 slide scanner and analyzed with a VIS-Visiopharm Integrator System (Visiopharm, Denmark) by a blinded data analyst. All cells of interest with visible nuclei were labeled manually and counted using an APP (Analysis Protocol Package), scaled by section thickness and sectioning interval to estimate the total cell population in the SNpc. For immunostaining of Ser129 αSyn phosphorylation, TSA amplification was used with primary antibody ab51253 (Abcam). Blinded analysis was used, and positive cells per area were determined. For dual IF IHC of Iba1 (WAKO) and GFAP (ab4674 – Abcam), the stained sections were scanned and analyzed by a blinded data analyst. Analysis determines the percentage of positive staining area [%area = (stained area/region area) * (100)]. To calculate % of stained area, the same threshold value was applied to all sections with the same antibody staining. All pixels above the threshold value were considered positive. All striatal densitometry and neuronal counting data for both KO and inhibitor studies were obtained by an investigator blinded to genotype and treatment.

USP5 = USP5 (Homo sapiens, UniProt P45974); assay: DUB/cathepsin selectivity biochemical assay
[2] = tested on: AAV-A53T-SNCA PD mouse model; assay: TH+ neuron counting in SNpc, AAV-A53T-SNCA mouse model (compound study); assay type: in vivo
Excerpt: as §1

ATXN3L = ATXN3L (Homo sapiens, UniProt Q9H3M9); assay: DUB/cathepsin selectivity biochemical assay
USP12/UAF1 = USP12/UAF1 (Homo sapiens, UniProt O75317); assay: DUB/cathepsin selectivity biochemical assay
USP10 = USP10 (Homo sapiens, UniProt Q14694); assay: DUB/cathepsin selectivity biochemical assay
USP14 = USP14 (Homo sapiens, UniProt P54578); assay: DUB/cathepsin selectivity biochemical assay
OTUD6A = OTUD6A (Homo sapiens, UniProt Q7L8S5); assay: DUB/cathepsin selectivity biochemical assay
USP15 = USP15 (Homo sapiens, UniProt Q9Y4E8); assay: DUB/cathepsin selectivity biochemical assay
USP13 = USP13 (Homo sapiens, UniProt Q92995); assay: DUB/cathepsin selectivity biochemical assay
OTUD5(p177S) = OTUD5(p177S) (Homo sapiens, UniProt Q96G74); assay: DUB/cathepsin selectivity biochemical assay
USP34 CORE = biological target: T1, USP34 CORE (Homo sapiens, UniProt Q70CQ2); assay: DUB/cathepsin selectivity biochemical assay
T1 construct: USP34 CORE

[3] = Mouse exploratory toxicology; assay type: in vivo; settings: two weeks of dosing, dose levels up to 300 mg/kg/day
BAP1 = BAP1 (Homo sapiens, UniProt Q92560); assay: DUB/cathepsin selectivity biochemical assay
UchL3 = UchL3 (Homo sapiens, UniProt P15374); assay: DUB/cathepsin selectivity biochemical assay
YOD1 = YOD1 (Homo sapiens, UniProt Q5VVQ6); assay: DUB/cathepsin selectivity biochemical assay
OTUD1 CD = biological target: T2, OTUD1 CD (Homo sapiens, UniProt Q5VV17); assay: DUB/cathepsin selectivity biochemical assay
T2 construct: OTUD1 CD

OTUB1/UBCH5B = OTUB1/UBCH5B (Homo sapiens, UniProt Q96FW1); assay: DUB/cathepsin selectivity biochemical assay
[4] = tested on: AAV-A53T-SNCA PD mouse model; assay: Total αSyn and phospho-S129 αSyn immunostaining in SNpc, AAV-A53T-SNCA mouse model (compound study); assay type: in vivo
Excerpt: as §1

[5] = AAV-A53T + MTX115325 (50 mg/kg), Group 5, Left hemisphere, individual animal values (Animal ID in r3)
[6] = AAV-A53T + MTX115325 (50 mg/kg), Group 5, Right hemisphere, individual animal values (Animal ID in r3)

Sequence of USP10 (Q14694 whole entry): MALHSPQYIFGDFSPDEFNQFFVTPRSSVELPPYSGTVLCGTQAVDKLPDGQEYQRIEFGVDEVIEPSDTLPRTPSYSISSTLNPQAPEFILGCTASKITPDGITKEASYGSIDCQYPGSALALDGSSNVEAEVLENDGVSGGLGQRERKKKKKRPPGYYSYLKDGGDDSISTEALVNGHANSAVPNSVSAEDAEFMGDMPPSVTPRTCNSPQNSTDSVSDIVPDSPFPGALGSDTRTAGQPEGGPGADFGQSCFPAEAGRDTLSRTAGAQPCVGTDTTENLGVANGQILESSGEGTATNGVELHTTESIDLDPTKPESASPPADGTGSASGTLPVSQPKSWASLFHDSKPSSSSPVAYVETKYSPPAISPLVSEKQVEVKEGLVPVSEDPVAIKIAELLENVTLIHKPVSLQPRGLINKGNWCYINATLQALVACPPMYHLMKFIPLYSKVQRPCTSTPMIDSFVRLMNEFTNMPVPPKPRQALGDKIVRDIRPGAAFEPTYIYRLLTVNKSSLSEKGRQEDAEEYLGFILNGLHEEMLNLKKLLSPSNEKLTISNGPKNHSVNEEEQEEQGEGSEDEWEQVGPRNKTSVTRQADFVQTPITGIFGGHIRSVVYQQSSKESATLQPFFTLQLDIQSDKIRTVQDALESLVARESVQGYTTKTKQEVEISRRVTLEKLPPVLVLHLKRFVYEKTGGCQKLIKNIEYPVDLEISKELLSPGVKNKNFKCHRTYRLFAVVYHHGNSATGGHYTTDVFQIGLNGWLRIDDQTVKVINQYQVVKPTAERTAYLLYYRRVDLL
Sequence of ATXN3L (Q9H3M9 whole entry, species assumed): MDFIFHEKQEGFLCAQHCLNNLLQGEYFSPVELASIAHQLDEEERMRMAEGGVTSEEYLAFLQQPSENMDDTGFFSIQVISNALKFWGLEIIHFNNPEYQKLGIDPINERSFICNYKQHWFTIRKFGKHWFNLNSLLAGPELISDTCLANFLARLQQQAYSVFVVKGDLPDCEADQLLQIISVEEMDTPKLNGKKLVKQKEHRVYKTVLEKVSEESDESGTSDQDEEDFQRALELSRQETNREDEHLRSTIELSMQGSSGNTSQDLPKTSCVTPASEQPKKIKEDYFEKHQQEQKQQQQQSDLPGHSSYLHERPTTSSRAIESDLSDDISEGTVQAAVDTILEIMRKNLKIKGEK
Sequence of USP14 (P54578 whole entry, species assumed): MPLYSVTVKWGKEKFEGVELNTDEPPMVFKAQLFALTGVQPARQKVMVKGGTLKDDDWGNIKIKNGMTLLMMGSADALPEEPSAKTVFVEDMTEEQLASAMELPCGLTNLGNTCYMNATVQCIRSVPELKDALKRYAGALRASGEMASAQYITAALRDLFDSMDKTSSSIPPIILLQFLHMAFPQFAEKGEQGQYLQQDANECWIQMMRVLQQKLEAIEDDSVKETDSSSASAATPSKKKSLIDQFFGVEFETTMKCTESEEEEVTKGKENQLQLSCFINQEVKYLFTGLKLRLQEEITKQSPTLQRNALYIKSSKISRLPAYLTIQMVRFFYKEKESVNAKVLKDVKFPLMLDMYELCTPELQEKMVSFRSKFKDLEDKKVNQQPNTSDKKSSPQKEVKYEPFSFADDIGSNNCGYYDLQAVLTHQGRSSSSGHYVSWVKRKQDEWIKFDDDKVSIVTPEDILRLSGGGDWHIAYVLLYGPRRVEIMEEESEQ
Sequence of UchL3 (P15374 whole entry, species assumed): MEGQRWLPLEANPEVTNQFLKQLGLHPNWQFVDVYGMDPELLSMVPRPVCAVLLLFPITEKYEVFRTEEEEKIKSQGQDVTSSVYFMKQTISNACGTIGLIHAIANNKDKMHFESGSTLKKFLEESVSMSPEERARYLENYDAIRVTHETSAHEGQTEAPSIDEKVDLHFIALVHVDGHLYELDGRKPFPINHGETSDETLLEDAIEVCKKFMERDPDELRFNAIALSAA
T2 sequence (Q5VV17 309-438 limits assumed): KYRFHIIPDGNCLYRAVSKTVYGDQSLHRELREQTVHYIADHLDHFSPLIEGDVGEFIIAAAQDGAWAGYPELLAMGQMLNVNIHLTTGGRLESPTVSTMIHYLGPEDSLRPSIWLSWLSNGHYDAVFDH
Sequence of OTUD6A (Q7L8S5 whole entry, species assumed): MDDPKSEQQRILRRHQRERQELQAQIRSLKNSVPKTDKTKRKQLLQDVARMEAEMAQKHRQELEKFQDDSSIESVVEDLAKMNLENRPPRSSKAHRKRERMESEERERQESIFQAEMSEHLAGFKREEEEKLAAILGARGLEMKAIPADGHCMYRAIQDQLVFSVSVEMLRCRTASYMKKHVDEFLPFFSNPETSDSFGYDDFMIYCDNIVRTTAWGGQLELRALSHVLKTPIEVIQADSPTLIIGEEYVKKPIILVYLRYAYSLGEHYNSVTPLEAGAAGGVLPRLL
Sequence of OTUB1/UBCH5B (Q96FW1 whole entry, species assumed): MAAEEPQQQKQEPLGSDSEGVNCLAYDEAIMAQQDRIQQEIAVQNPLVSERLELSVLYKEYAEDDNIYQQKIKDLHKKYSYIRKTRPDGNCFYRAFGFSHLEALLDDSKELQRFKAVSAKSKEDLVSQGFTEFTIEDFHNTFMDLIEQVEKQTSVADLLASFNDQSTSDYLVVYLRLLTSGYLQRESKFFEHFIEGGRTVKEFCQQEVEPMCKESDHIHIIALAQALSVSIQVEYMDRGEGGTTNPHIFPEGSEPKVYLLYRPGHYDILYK
Sequence of OTUB1/UBCH5B (P62837 whole entry partner, species assumed): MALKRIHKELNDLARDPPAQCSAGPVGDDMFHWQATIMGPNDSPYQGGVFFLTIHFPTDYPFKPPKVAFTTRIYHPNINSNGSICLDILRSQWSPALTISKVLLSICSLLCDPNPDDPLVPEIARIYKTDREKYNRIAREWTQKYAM
Sequence of OTUD5(p177S) (Q96G74 whole entry, species assumed): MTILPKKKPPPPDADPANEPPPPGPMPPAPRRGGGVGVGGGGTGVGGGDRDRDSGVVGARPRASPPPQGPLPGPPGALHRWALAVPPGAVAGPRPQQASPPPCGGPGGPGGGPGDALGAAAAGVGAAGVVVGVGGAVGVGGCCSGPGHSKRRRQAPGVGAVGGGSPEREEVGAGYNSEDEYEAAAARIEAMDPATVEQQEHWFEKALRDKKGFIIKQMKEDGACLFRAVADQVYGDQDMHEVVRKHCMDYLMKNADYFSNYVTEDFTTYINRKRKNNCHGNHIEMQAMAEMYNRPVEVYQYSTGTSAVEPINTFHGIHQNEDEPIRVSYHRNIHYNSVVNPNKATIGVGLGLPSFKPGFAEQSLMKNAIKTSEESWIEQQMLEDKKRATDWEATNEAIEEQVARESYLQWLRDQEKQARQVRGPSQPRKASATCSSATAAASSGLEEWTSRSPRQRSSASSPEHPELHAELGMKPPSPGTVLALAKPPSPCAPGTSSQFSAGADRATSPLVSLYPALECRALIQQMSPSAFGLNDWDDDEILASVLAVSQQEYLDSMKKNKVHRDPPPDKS
T1 sequence (Q70CQ2 1894-2239 limits assumed): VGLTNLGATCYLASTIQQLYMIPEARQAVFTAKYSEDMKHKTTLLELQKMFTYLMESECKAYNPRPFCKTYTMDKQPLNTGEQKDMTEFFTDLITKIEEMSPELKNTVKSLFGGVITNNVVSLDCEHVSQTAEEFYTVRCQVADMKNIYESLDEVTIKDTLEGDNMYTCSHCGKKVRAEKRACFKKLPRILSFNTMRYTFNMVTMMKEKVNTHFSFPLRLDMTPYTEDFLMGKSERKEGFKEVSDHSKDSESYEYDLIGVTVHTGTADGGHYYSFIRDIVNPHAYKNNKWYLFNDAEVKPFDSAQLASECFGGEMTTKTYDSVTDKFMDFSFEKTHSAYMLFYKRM
Sequence of BAP1 (Q92560 whole entry): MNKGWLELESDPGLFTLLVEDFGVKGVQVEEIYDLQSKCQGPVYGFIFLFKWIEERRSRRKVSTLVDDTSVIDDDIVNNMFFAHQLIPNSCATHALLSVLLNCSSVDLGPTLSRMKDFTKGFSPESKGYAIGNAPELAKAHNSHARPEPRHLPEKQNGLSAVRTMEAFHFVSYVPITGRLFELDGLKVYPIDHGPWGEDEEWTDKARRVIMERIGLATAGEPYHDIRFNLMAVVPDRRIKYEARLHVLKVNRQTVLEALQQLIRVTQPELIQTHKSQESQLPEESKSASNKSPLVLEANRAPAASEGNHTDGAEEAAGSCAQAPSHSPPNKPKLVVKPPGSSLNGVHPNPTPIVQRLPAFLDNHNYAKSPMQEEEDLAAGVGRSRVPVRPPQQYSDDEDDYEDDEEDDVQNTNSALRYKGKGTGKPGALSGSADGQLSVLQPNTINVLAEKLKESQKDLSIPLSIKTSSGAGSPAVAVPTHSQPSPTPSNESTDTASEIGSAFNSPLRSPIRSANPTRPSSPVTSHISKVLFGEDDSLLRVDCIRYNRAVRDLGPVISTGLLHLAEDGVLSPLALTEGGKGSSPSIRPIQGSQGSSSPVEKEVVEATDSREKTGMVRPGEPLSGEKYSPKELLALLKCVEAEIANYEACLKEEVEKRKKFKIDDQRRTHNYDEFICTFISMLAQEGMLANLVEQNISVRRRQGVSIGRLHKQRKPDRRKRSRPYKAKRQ
Sequence of YOD1 (Q5VVQ6 whole entry, species assumed): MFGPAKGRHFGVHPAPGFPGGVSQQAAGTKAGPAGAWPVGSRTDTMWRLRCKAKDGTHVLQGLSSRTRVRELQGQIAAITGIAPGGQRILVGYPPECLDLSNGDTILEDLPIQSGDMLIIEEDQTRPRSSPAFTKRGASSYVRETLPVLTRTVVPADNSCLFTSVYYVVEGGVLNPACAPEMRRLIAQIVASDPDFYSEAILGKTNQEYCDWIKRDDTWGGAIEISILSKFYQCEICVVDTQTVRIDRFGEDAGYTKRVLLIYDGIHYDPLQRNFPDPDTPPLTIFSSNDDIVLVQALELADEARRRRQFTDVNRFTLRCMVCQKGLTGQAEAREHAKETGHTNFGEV

For `C[C@@H]1[C@H]2CCN(C(=O)c3ncc(-c4ccnc(C#N)c4)o3)[C@H]2CN1C#N` [MTX115325], the “Total GFAP stained area” value ([1]; 50 mg/kg, SNpc) was “significantly decreased”, the “Figure S7b immunostaining quantification, Left” value [1, 5] was 1.3107 and 1.822 and 1.54 and 1.4872 and 0.5058 and 0.5702 and 1.26 and 0.5434 and 3.27 and 0.3697 and 0.5693 and 0.3721 and 1.3682 and the “Figure S7b immunostaining quantification, Right” value [1, 6] was 5.052 and 9.289 and 2.625 and 1.026 and 0.413 and 0.7794 and 1.305 and 0.7197 and 2.306 and 0.4784 and 1.89 and 0.7362 and 2.027. For the same compound, the “Figure S7a immunostaining, Left” value ([1]; Group 5: AAV-A53T + MTX115325 (50 mg/kg), Left side, individual animals) was 7.176 and 11.087 and 12.7517 and 7.21 and 7.515 and 4.054 and 9.929 and 4.978 and 8.49 and 4.199 and 4.24 and 6.399 and 9.051, the “Figure S7a immunostaining, Right” value ([1]; Group 5: AAV-A53T + MTX115325 (50 mg/kg), Right side, individual animals) was 24.0437 and 23.3177 and 16.4732 and 6.609 and 8.915 and 4.627 and 11.7034 and 7.051 and 10.4594 and 5.626 and 7.142 and 6.872 and 11.3579 and the IC50 (USP5) was > 300 µM. For the same compound, the “Percentage of ipsilateral vs contralateral TH+ neurons” value ([2]; 50 mg/kg BID oral, 10 weeks, vehicle 61.7%, p 0.029) was 89.08%, the “Percentage of ipsilateral vs contralateral TH+ neurons in SNpc” value ([2]; AAV-A53T-SNCA mice, individual animals) was 43.6893 and 97.2222 and 27.4336 and 125.243 and 125 and 105.063 and 101.25 and 55.1724 and 95.8333 and 93.9394 and 113.861 and 96.0526 and 68.5315 and 98.8095 and the “Beneficial effects at lower doses in a subsequent study” value ([2]; lower doses, doses not given, peer review reply) was “not show beneficial effects”. The IC50 (ATXN3L) was 173 µM, the IC50 (USP12/UAF1) was > 300 µM and the IC50 (USP10) was 107 µM. For the same compound, the IC50 (USP14) was > 300 µM, the IC50 (OTUD6A) was > 300 µM and the IC50 (USP15) was > 300 µM. For the same compound, the IC50 (USP13) was > 300 µM, the IC50 (OTUD5(p177S)) was > 300 µM and the IC50 (USP34 CORE) was > 300 µM. The “Tolerability (clinical observations, pathology)” value [3] was “well tolerated with no adverse clinical observations or pathology findings”, the IC50 (BAP1) was > 300 µM and the IC50 (UchL3) was > 300 µM. The IC50 (YOD1) was > 300 µM, the IC50 (OTUD1 CD) was > 300 µM and the IC50 (OTUB1/UBCH5B) was > 300 µM. The “Phosphorylated S129-αSyn” value ([4]; 50 mg/kg, SNpc) was “significantly reduced”, the “Figure S7c immunostaining quantification, Left” value [4, 5] was 0 (7×) and 0.04487 and 0.008105 and 0.007836 and 0.01908 and 0.009848 and 0.001515 and 0.003247 and 0.005828 and the “Figure S7d immunostaining quantification, Left” value [4, 5] was 0 (10×) and 1.603 and 0.7671 and 1.12 and 0.7902. For the same compound, the “Figure S7c immunostaining quantification, Right” value [4, 6] was 0.007974 and 0.07707 and 0.1923 and 0.06947 and 0.001983 and 0 (5×) and 0.06633 and 0.1857 and 0.01165 and 0.002029 and 6.4046e-5 and the “Figure S7d immunostaining quantification, Right” value [4, 6] was 57.3627 and 99.9359 and 9.299 and 6.893 and 1.412 and 0 (4×) and 0.2913 and 18.3383 and 84.6359 and 0.2072 and 0.6527.
